Consider 32 compounds from ChEMBL document CHEMBL5365404, “Synthesis and biological evaluation of 2-(Tetrazol-5-yl)sulfonylacetamides as inhibitors of Mycobacterium tuberculosis and Mycobacterium marinum” (Bioorg Med Chem Lett, 2023).

Converted amounts (≈) assume the structure as drawn.

Series [1] deals with Mycobacterium tuberculosis. As to the kind of experiment: Antitubercular activity against Mycobacterium tuberculosis assessed as reduction in microbial growth by broth dilution method. It counts as functional. (In general: Dilution methods test growth across graded concentrations, often in twofold steps.)
A further series deals with Mycobacterium marinum. As to the kind of experiment: Antitubercular activity against Mycobacterium marinum assessed as reduction in microbial growth by broth dilution method. It counts as functional.
Series [2] can be described thus: Half life in mouse liver microsomes. The class given is ADME, Microsome. A general note: Liver microsomes are vesicles of endoplasmic reticulum, rich in cytochrome P450 enzymes.
Series [3] can be described thus: Solubility of the compound at pH 2.0. The class given is physicochemical. The note with it: buffer.
Series [4] in a line: Intrinsic clearance in mouse liver microsomes. The class given is ADME, Microsome. The note with it: read-out: CLH.
Series [5] can be described thus: Solubility of the compound at pH 6.5. The note with it: buffer. It counts as physicochemical.
Series [6] can be described thus: Lipophilicity, log D of the compound at pH 7.4. The class given is physicochemical. The note with it: buffer.

As a reminder, the MIC90 is an inhibitory concentration at the 90% level, which refers to growth in some studies and to a panel of isolates in others. `O=C(CS(=O)(=O)c1nnc2ncccn12)N1CCCCC1`: the MIC90 (in series [1]; with Mycobacterium marinum) was above 100 µg/mL throughout.
With `CN(C(=O)CS(=O)(=O)c1nnnn1C)c1ccccc1`, the MIC90 came out at 2.5 µg/mL in series [1] and 100 µg/mL in the series with Mycobacterium marinum.
Regarding `CO[C@H]1/C=C/O[C@@]2(C)Oc3c(C)c(O)c4c(O)c(c(/C=N/N5CCN(C)CC5)c(O)c4c3C2=O)NC(=O)/C(C)=C\C=C\[C@H](C)[C@H](O)[C@@H](C)[C@@H](O)[C@@H](C)[C@H](OC(C)=O)[C@@H]1C` [RIFAMPIN], the MIC90 was determined as 0.06 µg/mL in series [1] and 0.2 µg/mL in the series on Mycobacterium marinum.
The matching figures for `CCN(CC)C(=O)CS(=O)(=O)c1nnnn1C`: 10 µg/mL and 100 µg/mL.
The matching figures for `CN(C(=O)CS(=O)(=O)c1nnnn1-c1ccccc1)c1ccccc1`: 10 µg/mL and 50 µg/mL.
For `Cn1nnnc1SCC(=O)N1CCCC1`, the MIC90 (in series [1]; in the series with Mycobacterium marinum) was above 100 µg/mL throughout.
In the case of `O=C(CS(=O)(=O)c1nnnn1-c1ccccc1)NC1CCCCC1`, the MIC90 (in series [1]; with Mycobacterium marinum) was 100 µg/mL each time.
`CC1CCCCN1C(=O)CS(=O)(=O)c1nnnn1C` (centres undefined): the results for the MIC90 (in series [1]; with Mycobacterium marinum) were 3.13 µg/mL and 25 µg/mL, respectively.
Broadly, the half-life is the time in which the quantity being followed falls by half. Low values mean fast loss, high ones slow loss. A word on the solubility: it is the concentration that dissolves in the medium under given conditions. As a reminder, the logD is lipophilicity at a set pH, counting ionised and neutral species. Low values mean a more hydrophilic compound, high ones a more lipophilic compound. As for `Cn1nnnc1S(=O)(=O)CC(=O)N1CCCCC1`, in series [2], the half-life came out at 2.93 h. Moreover, the solubility in series [3] and in series [5] was above 100 mg/mL in each case. In addition, the microsomal CLint in series [4] amounted to 10 µL/min/mg. The MIC90 in series [1] came to 1.56 µg/mL; in the series on Mycobacterium marinum it was 12.5 µg/mL. In series [6], this compound came in with a logD of 1.6.
Take `CC1CCN(C(=O)CS(=O)(=O)c2nnnn2-c2ccccc2)CC1`: the results for the MIC90 (in series [1]; in the series on Mycobacterium marinum) were 12.5 µg/mL and 100 µg/mL, respectively.
The matching figures for `Cn1nnnc1S(=O)(=O)CC(=O)N1CCCCCC1`: 1.25 µg/mL and 100 µg/mL.
The matching figures for `CN(C(=O)CS(=O)(=O)c1nc(O)nn1C)c1ccccc1`: above 100 µg/mL and above 100 µg/mL.
The matching figures for `CN(C(=O)CSc1nnnn1-c1ccccc1)c1ccccc1`: above 100 µg/mL and above 100 µg/mL.
On to `CC1CCN(C(=O)CS(=O)(=O)c2nnnn2C)CC1`, for which the MIC90 in series [1] is 1.56 µg/mL; with Mycobacterium marinum, 12.5 µg/mL.
The matching figures for `Cn1nnnc1S(=O)(=O)CC(=O)NC1CCCCC1`: 6.25 µg/mL and 12.5 µg/mL.
The matching figures for `CC1CCN(C(=O)C[S+]([O-])c2nnnn2-c2ccccc2)CC1` (centres undefined): 25 µg/mL and 100 µg/mL.
As to `O=C(CS(=O)(=O)c1nnc2ncccn12)N1CCN(c2ccccc2)CC1`, the MIC90 (in series [1]; in the series with Mycobacterium marinum) was above 100 µg/mL throughout.
For the compound `CCC1CCCCN1C(=O)CS(=O)(=O)c1nnnn1C` (centres undefined), the MIC90 in series [1] was 2.5 µg/mL; in the series with Mycobacterium marinum, 100 µg/mL.
The matching figures for `COc1cccc(-c2n[nH]c(S(=O)(=O)CC(=O)N3CCC(C)CC3)n2)c1`: above 100 µg/mL and above 100 µg/mL.
The matching figures for `O=C(CS(=O)(=O)c1nnnn1-c1ccccc1)N1CCCC1`: 20 µg/mL and above 100 µg/mL.
The matching figures for `CC1CCN(C(=O)CSc2nnnn2-c2ccccc2)CC1`: above 50 µg/mL and above 100 µg/mL.
For the compound `Cn1nnnc1S(=O)(=O)CC(=O)N1CCN(c2ccccc2)CC1`, the half-life in series [2] worked out at 0.333 h. In addition, the solubility in series [3] is 50 mg/mL (≈ 143 mM); in series [5], 25 mg/mL (≈ 71.3 mM). Besides, the microsomal CLint in series [4] stood at 85 µL/min/mg. Moreover, the MIC90 in series [1] turned out to be 1.25 µg/mL; with Mycobacterium marinum, 10 µg/mL. For the same compound, the logD in series [6] was 4.8.
Take `Cn1nnnc1SCC(=O)N1CCCCC1`: the MIC90 (in series [1]; in the series with Mycobacterium marinum) was above 100 µg/mL each time.
Consider `CCN(CC)C(=O)CS(=O)(=O)c1nnnn1-c1ccccc1`, for which the MIC90 in series [1] was 20 µg/mL; in the series with Mycobacterium marinum, above 100 µg/mL.
Consider `CC1CCCN(C(=O)CS(=O)(=O)c2nnnn2C)C1` (centres undefined), for which the MIC90 in series [1] worked out at 6.25 µg/mL; in the series with Mycobacterium marinum, 25 µg/mL.
Take `O=C(CS(=O)(=O)c1nnnn1-c1ccccc1)N1CCCCC1`: the results for the MIC90 (in series [1]; in the series with Mycobacterium marinum) were 10 µg/mL and 100 µg/mL, respectively.
The matching figures for `O=C(CSc1nnnn1-c1ccccc1)N1CCCC1`: 50 µg/mL and 100 µg/mL.
The matching figures for `CC1CCCCN1C(=O)CS(=O)(=O)c1nnnn1-c1ccccc1` (centres undefined): 12.5 µg/mL and 100 µg/mL.
The matching figures for `CN(C(=O)C[S+]([O-])c1nnnn1-c1ccccc1)c1ccccc1` (centres undefined): 50 µg/mL and 100 µg/mL.
As to `O=C(CS(=O)(=O)c1nnnn1-c1ccccc1)N1CCN(c2ccccc2)CC1`, the MIC90 in series [1] turned out to be 10 µg/mL; in the series with Mycobacterium marinum, 100 µg/mL.
The matching figures for `CC1CCN(C(=O)CS(=O)(=O)c2nc(-c3ccc(Cl)cc3)n[nH]2)CC1`: above 100 µg/mL and above 100 µg/mL.
The matching figures for `Cn1nnnc1S(=O)(=O)CC(=O)N1CCCC1`: 6.25 µg/mL and 12.5 µg/mL.
